Measured values as given in patent US6855710B2, “Substituted indolines with an inhibitory effect on various kinases and complexes of CDKs” (Boehringer Ingelheim Pharma KG, priority 1998, dated 2005).

| SMILES | melting point |
| --- | --- |
| CC(=O)NCc1ccc(/C(Nc2cccc(N(CC(N)=O)S(C)(=O)=O)c2)=C2/C(=O)Nc3ccccc32)cc1 [Example 417, (Z)-3-{1-[3-(N-aminocarbonylmethyl-N-methylsulphonyl-amino)-phenylamino]-1-(4-acetylaminomethyl-phenyl)-methylidene}-2-indolinone] | 215 °C |
| COC(=O)/C=C/c1ccc(/C(Nc2ccc(OC)cc2)=C2/C(=O)Nc3ccc([N+](=O)[O-])cc32)cc1 [Example 435, (Z)-3-{1-(4-methoxyphenylamino)-1-[(E)-4-(2-methoxycarbonylethenyl)-phenyl]-methylidene}-5-nitro-2-indolinone] | 266 to 270 °C |
| CN(C)C(=O)CN(c1ccc(N/C(=C2\C(=O)Nc3ccccc32)c2ccccc2)cc1)S(=O)(=O)Cc1ccccc1 [Example 207, (Z)-3-{1-[4-(N-dimethylaminocarbonylmethyl-N-benzylsulphonyl-amino)-phenylamino]-1-phenyl-methylidene}-2-indolinone] | 133 to 135 °C |
| CN(C(=O)CN1CCCCC1)c1ccc(N/C(=C2\C(=O)Nc3ccccc32)c2ccccc2)cc1 [Example 50, (Z)-3-{1-[4-(N-piperidinomethylcarbonyl-N-methyl-amino)-phenylamino]-1-phenyl-methylidene}-2-indolinone] | 230 to 235 °C (dec.) |
| CS(=O)(=O)N(CCN1CCOCC1)c1ccc(N/C(=C2\C(=O)Nc3ccccc32)c2ccccc2)cc1 [Example 189, (Z)-3-{1-[4-(N-(2-morpholinoethyl)-N-methylsulphonyl-amino)-phenylamino]-1-phenyl-methylidene}-2-indolinone] | 249 to 250 °C |
| O=CN(CCN1CCOCC1)c1ccc(N/C(=C2\C(=O)Nc3ccc([N+](=O)[O-])cc32)c2ccccc2)cc1 [Example 333, (Z)-3-{1-[4-(N-(2-morpholinoethyl)-N-formyl-amino)-phenylamino]-1-phenyl-methylidene}-5-nitro-2-indolinone] | 207 °C |
| CC(C)(C)OC(=O)NCC(=O)NCc1cccc(N/C(=C2\C(=O)Nc3ccc([N+](=O)[O-])cc32)c2ccccc2)c1 [Example 136, (Z)-3-[1-(3-tert.butoxycarbonylaminomethylcarbonylaminomethyl-phenylamino)-1-phenyl-methylidene]-5-nitro-2-indolinone] | 228 °C |
| O=C1Nc2ccccc2/C1=C(/Nc1ccc(C(=O)N2CCCC2)cc1)c1ccccc1 [Example 386, (Z)-3-{1-[4-(pyrrolidin-1-ylcarbonyl)-phenylamino]-1-phenyl-methylidene}-2-indolinone] | 127 to 129 °C |
| CCOC(=O)CN(C)S(=O)(=O)c1ccc(N/C(=C2\C(=O)Nc3ccc([N+](=O)[O-])cc32)c2ccccc2)cc1 [Example 413, (Z)-3-{1-[4-(N-ethoxycarbonylmethyl-N-methyl-aminosulphonyl)-phenylamino]-1-phenyl-methylidene}-5-nitro-2-indolinone] | 206 to 207 °C |
| CN1CCN(Cc2cccc(N/C(=C3\C(=O)Nc4ccc([N+](=O)[O-])cc43)c3ccccc3)c2)CC1 [Example 110, (Z)-3-{1-[3-(4-methylpiperazinomethyl)-phenylamino]-1-phenyl-methylidene}-5-nitro-2-indolinone] | 256 to 258 °C |
| CNC(=O)CN(c1cccc(N/C(=C2\C(=O)Nc3ccccc32)c2ccc(CNC(C)=O)cc2)c1)S(C)(=O)=O [Example 419, (Z)-3-{1-[3-(N-methylaminocarbonylmethyl-N-methylsulphonyl-amino)-phenylamino]-1-(4-acetylaminomethyl-phenyl)-methylidene}-2-indolinone] | 242 °C |
| CS(=O)(=O)N(CC(=O)O)c1ccc(N/C(=C2\C(=O)Nc3ccc([N+](=O)[O-])cc32)c2ccccc2)cc1 [Example 199, (Z)-3-{1-[4-(N-carboxymethyl-N-methylsulphonyl-amino)-phenyl-amino]-1-phenyl-methylidene}-5-nitro-2-indolinone] | 180 to 183 °C |
| CN(C)CCN(C)C(=O)CN(c1cccc(N/C(=C2\C(=O)Nc3ccccc32)c2ccccc2)c1)S(C)(=O)=O [Example 323, (Z)-3-{1-[3-(N—((N-(2-dimethylaminoethyl)-N-methyl-amino)-carbonylmethyl)-N-methylsulphonyl-amino)-phenylamino]-1-phenyl-methylidene}-2-indolinone] | 197 to 199 °C |
| CN(C(=O)CN)c1ccc(N/C(=C2\C(=O)Nc3ccc([N+](=O)[O-])cc32)c2ccccc2)cc1 [Example 139, (Z)-3-{1-[4-(N-aminomethylcarbonyl-N-methyl-amino)-phenyl-amino]-1-phenyl-methylidene}-5-nitro-2-indolinone] | 255 to 256 °C |
| CC(=O)N(CCN(C)C)c1ccc(N/C(=C2\C(=O)Nc3ccccc32)c2ccccc2)cc1 [Example 340, (Z)-3-{1-[4-(N-(2-dimethylaminoethyl)-N-acetyl-amino)-phenylamino]-1-phenyl-methylidene}-2-indolinone] | 197 to 199 °C |
| CCCCS(=O)(=O)N(CCN(C)C)c1ccc(N/C(=C2\C(=O)Nc3ccccc32)c2ccccc2)cc1 [Example 453, (Z)-3-[1-(4-(N-(2-dimethylaminoethyl)-N-butylsulphonyl-amino)-phenylamino)-1-phenyl-methylidene]-2-indolinone] | 225 to 227 °C |

| SMILES | melting point |
| --- | --- |
| C[C@@H](NC(=O)OC(C)(C)C)c1ccc(N/C(=C2\C(=O)Nc3ccc([N+](=O)[O-])cc32)c2ccccc2)cc1 [Example 125, (Z,R)-3-{1-[4-(1-tert.butoxycarbonylamino-ethyl)-phenylamino]-1-phenyl-methylidene}-5-nitro-2-indolinone] | 247 to 249 °C |
| O=CNc1ccc(N/C(=C2\C(=O)Nc3ccccc32)c2ccccc2)cc1 [Example 29, (Z)-3-[1-(4-formylamino-phenylamino)-1-phenyl-methylidene]-2-indolinone] | 268 to 269 °C |
| CCOC(=O)CNCCc1ccc(N/C(=C2\C(=O)Nc3ccc([N+](=O)[O-])cc32)c2ccccc2)cc1 [Example 178, (Z)-3-{1-[4-(2-ethoxycarbonylmethylamino-ethyl)-phenylamino]-1-phenyl-methylidene}-5-nitro-2-indolinone] | 139 to 140 °C |
| CC(C)(C)OC(=O)Nc1ccc(N/C(=C2\C(=O)Nc3ccccc32)c2ccccc2)cc1 [Example 28, (Z)-3-[1-(4-tert.butoxycarbonylamino-phenylamino)-1-phenyl-methylidene]-2-indolinone] | 244 to 246 °C |
| COCCNCC(=O)N(C)c1ccc(N/C(=C2\C(=O)Nc3ccccc32)c2ccccc2)cc1 [Example 371, (Z)-3-{1-[4-(N-(2-methoxyethylaminomethylcarbonyl)-N-methyl-amino)-phenylamino]-1-phenyl-methylidene}-2-indolinone] | 186 to 188 °C |
| CC(C)CN(Cc1ccc(N/C(=C2\C(=O)Nc3ccc([N+](=O)[O-])cc32)c2ccccc2)cc1)CC(C)C [Example 163, (Z)-3-[1-(4-Diisobutylaminomethyl-phenylamino)-1-phenyl-methylidene]-5-nitro-2-indolinone] | 204 to 207 °C |
| O=C1Nc2ccc([N+](=O)[O-])cc2/C1=C(/Nc1ccc(CN2CCCCC2)cc1)c1ccc(Cl)cc1 [Example 443, (Z)-3-[1-(4-piperidinomethyl-phenylamino)-1-(4-chlorophenyl)-methylidene]-5-nitro-2-indolinone] | 309 to 311 °C |
| CN(C)CCCN(c1cccc(N/C(=C2\C(=O)Nc3ccccc32)c2ccc(CN)cc2)c1)S(C)(=O)=O [Example 424, (Z)-3-{1-[3-(N-(3-dimethylaminopropyl)-N-methylsulphonyl-amino)-phenylamino]-1-(4-aminomethyl-phenyl)-methylidene}-2-indolinone] | 197 °C |
| CN(CC(=O)O)C(=O)c1cccc(N/C(=C2\C(=O)Nc3ccccc32)c2ccccc2)c1 [Example 26, (Z)-3-{1-[3-(N-carboxymethyl-N-methyl-aminocarbonyl)-phenyl-amino]-1-phenyl-methylidene}-2-indolinone] | 218 to 220 °C |
| CN(Cc1ccc(N/C(=C2\C(=O)Nc3ccc([N+](=O)[O-])cc32)c2ccccc2)cc1)c1ccccc1 [Example 234, (Z)-3-{1-[4-(N-methyl-N-phenyl-aminomethyl)-phenylamino]-1-phenyl-methylidene}-5-nitro-2-indolinone] | 228 to 230 °C |
| O=C1Nc2ccc([N+](=O)[O-])cc2/C1=C(/Nc1ccc(NCCN2CCOCC2)cc1)c1ccccc1 [Example 332, (Z)-3-{1-[4-(2-morpholinoethylamino)-phenylamino]-1-phenyl-methylidene}-5-nitro-2-indolinone] | 253 °C |
| CC(=O)NCc1cccc(N/C(=C2\C(=O)Nc3ccc([N+](=O)[O-])cc32)c2ccccc2)c1 [Example 138, (Z)-3-[1-(3-acetylaminomethyl-phenylamino)-1-phenyl-methylidene]-5-nitro-2-indolinone] | 238 °C |
| CS(=O)(=O)NCc1ccc(N/C(=C2\C(=O)Nc3ccc([N+](=O)[O-])cc32)c2ccccc2)cc1 [Example 167, (Z)-3-[1-(4-methylsulphonylaminomethyl-phenylamino)-1-phenyl-methylidene]-5-nitro-2-indolinone] | 294 to 296 °C |
| CC(C)(C)OC(=O)NCCc1ccc(N/C(=C2\C(=O)Nc3ccc([N+](=O)[O-])cc32)c2ccccc2)cc1 [Example 127, (Z)-3-{1-[4-(2-tert.butoxycarbonylamino-ethyl)-phenylamino]-1-phenyl-methylidene}-5-nitro-2-indolinone] | 213 to 214 °C |
| O=C(O)Cc1cccc(N/C(=C2\C(=O)Nc3ccccc32)c2ccccc2)c1 [Example 12, (Z)-3-[1-(3-carboxymethyl-phenylamino)-1-phenyl-methylidene]-2-indolinone] | 268 to 270 °C |
| CN(C)C(=O)CCNCc1cccc(N/C(=C2\C(=O)Nc3ccc([N+](=O)[O-])cc32)c2ccccc2)c1 [Example 253, (Z)-3-{1-[3-(2-dimethylaminocarbonyl-ethylaminomethyl)-phenylamino]-1-phenyl-methylidene}-5-nitro-2-indolinone] | 177 to 179 °C |
